Measurements: patent US20250082654A1, “AZD3355 (LESOGABERAN) FOR TREATMENT AND PREVENTION OF NONALCOHOLIC STEATOHEPATITIS (NASH), LIVER FIBROSIS, AND OTHER LIVER CONDITIONS” (Icahn School of Medicine at Mount Sinai, priority 2018, published 2025)

Tests used:
[1] = tested on: carbon tetrachloride-induced liver injury; conditions: in vivo; cited from earlier work
NASH model mice = assay: NASH mouse model, histopathological scoring of liver sections; type: in vivo; conditions: 30 mg/kg daily; for Hepatocyte ballooning ± SE: score 0-2; for Portal inflammation ± SE / Lobular Inflammation ± SE / Steatosis ± SE: score 0-3; for Fibrosis Stage ± SE: score 0-4; for NAFLD activity score (NAS) ± SE: score 0-8
Experimental: Four separate groups of mice were given either 0.5% methylcellulose (as Vehicle) or AZD3355 at 10 mg/kg (low dose) body weight of mice or 30 mg/kg (high dose) body weight of mice by twice daily (BID (5 days/week)) and OCA at 30 mg/kg body weight of mice by daily (QD (5 days/week)) through oral route for up to next 12 weeks (week 13 to week 24). Them last group of mice were not given any drug or vehicle treatment, as No Tx—24 weeks and maintained in parallel with treatment/vehicle groups. Usually all doses were given at early morning and the second daily dose of AZD3355 at evening (10 hours of intervals). All animals were closely monitored the health conditions and behavior.
A piece of tissue from large liver lobe was fixed in 10% Formalin Buffered (Astral Diagnostics Incorporated NJ) embedded in paraffin and microtome sectioning were performed. Slides containing tissue sections were baked at 60° C. for 1 hour and re-hydrated through xylene followed by graded ethanol (100%, 95%, 85% and 70%) into distilled water and processed in either Picrosirius red/Fast green or hematoxylin and eosin staining.
A total of 2 sections/animal were stained with H&E staining performed by standard protocol.
Steatosis, hepatocyte ballooning, lobular inflammation, portal inflammation and fibrosis of picroserious red/fast green and H&E stained liver section were scored according to the NASH Clinical Research Network (NASH CRN) scoring system in a blinded fashion by an expert hepato-pathologist in Icahn School of Medicine at Mount Sinai. NAFLD activity score (NAS) was calculated according to Brunt criteria and range from 0-8. NAS was calculated by the sum of scores of steatosis (0-3), hepatocyte ballooning (0-2) and lobular inflammation (0-3). NAS score of >5.0 strongly correlated with “definite-NASH” whereas <3 correlated with “not-NASH”. Fibrosis (0-4) or portal inflammation (0-3) scores were assessed separately and not included in NAS.

human liver slices = assay: Liver slice assay, histopathology and H&E staining; type: cell-based; conditions: 24 hours
Experimental: Ten human liver pieces were collected from the Mount Sinai biorepository. The samples were prepared by coring the liver with 8 mm cylindrical coring tools. The liver cores were kept in ice cold WE medium, with GlutaMAX supplemental. A liver core was then mounted on a specimen plate with cyanoacrylate adhesive. Liver slices (approximately 200 μm in thickness) were placed in ice cold Krebs-Henesleit buffer in the presence of carbogen gas. There was then a 1 hour pre-incubation in WE GlutaMAX media with gentamicin in 95% O2 and 5% CO2 at 37° C. in a humidified rocker chamber to restore ATP levels.
The liver slices were then cultured in WE GlutaMAX media with gentamicin in 95% O2 and 5% CO2 at 37° C. in a humidified rocker chamber with slow 70 rpm rocking in the presence of AZD3355 in the amounts of 250 nM, 500 nM, 1000 nM, or 2000 nM, or sorafenib at 1000 nM., or control vehicle (saline water).
After 24 hours, the tissue slices were harvested for either RNA isolation and quantitative PCR for measurements of Col1α1, TNFα, and IL-6 expression, or for histopathology and hematoxylin and eosin (H&E) staining as described in Example 3.

LX-2 cells [2] = assay: Fibrogenic gene expression by RT-qPCR; type: cell-based, human; conditions: 48 and 72 hours
Experimental: The following fibrogenic gene expressions were quantified by RT-qPCR: • 1. Collagen1α1 (Col1α1); • 2. Alpha Smooth Muscle Actin (αSMA); • 3. Beta PDGF receptor (β-PDGFR); • 4. Transforming growth factor-β receptor1 (TGFβ-R1); • 5. Tissue inhibitor of metalloproteinase—1 (TIMP1); • 6. Tissue inhibitor of metalloproteinase—2 (TIMP2); and • 7. Matrix Metalloproteinase 2 (MMP2).
The kinase inhibitor sorafenib (7.5 μM concentration) was used as positive control and run in parallel. 150,000 LX-2 cells or 200,000 phHSCs per well were plated on 6-well plate dish. Cells were starved overnight in DMEM supplemented with 0.1% BSA (without antibiotic). Cells were then incubated with either AZD3355 or sorafenib at the indicated concentration and duration. Cells were harvested and total RNA was extracted using RNeasy Mini Kit (Qiagen, CA). 0.5 μg of total RNA was used for reverse transcription with ‘RNA to cDNA EcoDry Premix (Double Primed) Kit’ (Clontech, CA). Expression of fibrogenic genes were measured by qPCR using custom designed primers (Sigma-Aldrich, MO) and iQ SYBR Green Supermix (Bio-Rad, CA) on a LightCycler 480 II (Roche Diagnostics Corporation, IN) instrument. Glyceraldehyde-3-phosphate dehydrogenase (GAPDH), […] (RPII), α-tubulin and β-actin genes were tested to determine the best fit for housekeeping gene of the study. […]

phHSCs = assay: Fibrogenic protein expression by western blot and densitometry from cell lysate; type: cell-based, human; conditions: 48 or 72 hours
Experimental: (§1) Western blot and RT-qPCR experiments were run in parallel. 150,000 LX-2 cells or 200,000 phHSCs per well were plated on a 6-well plate dish. Cells were starved overnight in DMEM supplemented with 0.1% BSA (without antibiotic). Cells were then incubated with either AZD3355 or sorafenib at the indicated concentration and duration. Cells were harvested and lysed using RIPA buffer (50 mM Tris-HC1 pH8.0, 150 mM NaCl, 1% IGEPAL, 0.5% sodium deoxycholate and 0.1% SDS) along with Pierce Protease Inhibitor Mini Tablets, EDTA-Free (ThermoScientific, IL). Total protein was measured by Bradford colorimetric assay using Protein Assay Dye Reagent Concentrate (Bio-Rad, CA). […] After hybridized with HRP conjugated secondary antibody (either Goat anti-rabbit HRP (Jackson ImmunoResearch Laboratories, PA) or anti-mouse IgG-HRP (Cell Signaling Technology, MA) the membrane was treated with Immobilon Western Chemiluminescent HRP substrate (Millipore, MA) and the signals were captured with Amersham Imager 6000 (GE Healthcare, PA). 210 kD of Col1α1, 72 kD of MMP2 and 42 kD of α-SMA bands were recognized by respective antibody. 37 kD band of GAPDH was probed as loading control. For densitometric measurement of the protein bands, images were exported and analyzed using ImageJ 1.50 f software and bands were normalized to the loading control, GAPDH.

LX-2 cells [3] = assay: as above; type: cell-based, human; conditions: LX2 cells, 48 or 72 hours, 30 nM or 100 nM AZD3355 or sorafenib
Experimental: as §1

For `NCC(CC(=O)O)c1ccc(Cl)cc1` (stereo not shown) [baclofen], the “liver injury due to carbon tetrachloride” value [1] is listed as “attenuates injury”.

For `CC[C@H]1[C@@H](O)[C@@H]2[C@H](CC[C@]3(C)[C@@H]([C@H](C)CCC(=O)O)CC[C@@H]23)[C@@]2(C)CC[C@@H](O)C[C@@H]12` [OCA, Obeticholic acid, reference compound], the “Hepatocyte ballooning ± SE” value (NASH model mice; ♀ Mice, vehicle 1.2 ± 0.1) was 1.1 ± 0.2, the “Portal inflammation ± SE” value (NASH model mice; ♀ Mice, vehicle 1.6 ± 0.1) was 1.0 ± 0.2 and the “Lobular Inflammation ± SE” value (NASH model mice; ♀ Mice, vehicle 2.3 ± 0.1) was 1.6 ± 0.1. For the same compound, the “Steatosis ± SE” value (NASH model mice; ♀ Mice, vehicle 2.5 ± 0.1) was 2.0 ± 0.2, the “Fibrosis Stage ± SE” value (NASH model mice; ♀ Mice, vehicle 3.0 ± 0.1) was 2.2 ± 0.1 and the “NAFLD activity score (NAS) ± SE” value (NASH model mice; ♀ Mice, vehicle 6.1 ± 0.4) was 4.7 ± 0.6. For the same compound, the “Steatohepatitis Grade ± SE” value (NASH model mice; ♀ Mice, vehicle 1.8 ± 0.2) was 1.4 ± 0.3, the “Hepatocyte ballooning ± SE” value (NASH model mice; ♂ Mice, vehicle 1.7 ± 0.1) was 1.0 ± 0.2 and the “Portal inflammation ± SE” value (NASH model mice; ♂ Mice, vehicle 2.0 ± 0.1) was 1.3 ± 0.2. The “Steatosis ± SE” value (NASH model mice; ♂ Mice, vehicle 2.7 ± 0.1) was 2.0 ± 0.2, the “Lobular Inflammation ± SE” value (NASH model mice; ♂ Mice, vehicle 2.8 ± 0.1) was 1.9 ± 0.2 and the “Fibrosis Stage ± SE” value (NASH model mice; ♂ Mice, vehicle 3.3 ± 0.1) was 2.9 ± 0.1. For the same compound, the “NAFLD activity score (NAS) ± SE” value (NASH model mice; ♂ Mice, vehicle 7.2 ± 0.3) was 5.0 ± 0.6 and the “Steatohepatitis Grade ± SE” value (NASH model mice; ♂ Mice, vehicle 2.6 ± 0.2) was 1.5 ± 0.3.

In the case of `CNC(=O)c1cc(Oc2ccc(NC(=O)Nc3ccc(Cl)c(C(F)(F)F)c3)cc2)ccn1` [Sorafenib, sorafenib], the “liver cells viability (H&E)” value (human liver slices) is reported as “did not change”, the “gene expression of pro-fibrogenic genes Col1α1, αSMA, βPDGF-R, TGFβ-R1, TIMP1, TIMP2, MMP2” value (LX-2 cells [2]) is reported as “downregulated” and the “protein expression of Col1α1 (western blot)” value (phHSCs) is reported as “no change”. For the same compound, the “protein expression of Col1α1 (western blot)” value (LX-2 cells [3]) was “no change”.
